# Measured values as given in ChEMBL document CHEMBL3507680, “University of Dundee, Gates Library screen for HepG2 cell viability”.
# Assay: Human HepG2 cell viability assay in 384 well format
# Format: toxicity, cell-based
# Set-up: dose 125 nL, time 70.5 hour; concentration not given beside the values
# Conditions: HepG2 cells, read-out: Inhibition
row,Structure (SMILES),cytotoxicity at 70.5 h
1,CSCC(=O)N1CCc2[nH]nc(-c3ccc4c(c3)OCO4)c2C1,0.0699%
2,CCS(=O)(=O)CCN1CCN(C2CCC(C(C)C)CC2)CC1 (centres undefined),11.5%
3,COc1c(CNC2CCOc3ccccc32)c(C(C)C)nn1C (centres undefined),-7.12%
4,Cc1csc(N2CCN(C3CCc4ccccc4C3)CC2)n1 (centres undefined),13%
5,O=C(c1cn(-c2ccccc2)nn1)N1CCCC(n2cccn2)C1 (centres undefined),-3.98%
6,O=C(Cc1ccc(Br)cc1)N1CC(S(=O)(=O)C2CCCCC2)C1,-4.51%
7,CN(Cc1ccco1)[C@@H]1CN(C(=O)c2ccnnc2)[C@@H]2CCCO[C@H]12,1.48%
8,Cc1noc(C2(C)CCCN(C(=O)c3cnn(C)c3)C2)n1 (centres undefined),-7.96%
9,Cc1nc(CN2CCC(N(C)Cc3noc(C(C)C)n3)C2)cs1 (centres undefined),33.4%
10,COCCCC1(CO)CCCN(CCOC)C1 (centres undefined),-4.83%
11,O=C(c1ccco1)N1CC[C@@H](N2CCOCC2)[C@@H]1Cc1ccccc1,-7.17%
12,COC(=O)c1ccc(N2CCN(C(=O)c3cccnc3)C(C)C2)cc1 (centres undefined),-4.39%
13,CSCCN(C)C(=O)C1(c2ccc(F)cc2F)CCOCC1,-0.975%
14,Cc1n[nH]c(SCC(=O)N[C@@H](C)C(N)=O)n1,0.227%
15,COc1ccc(CCC2CCCCN2)cc1OC (centres undefined),19.8%
16,Cc1cnn(CC2CCCN2C(=O)c2cc(O)nc3ccccc23)c1 (centres undefined),-7.86%
17,Cc1csc(N2CCN(C(=O)CCC(=O)c3ccc(C)s3)CC2)n1,7.78%
18,CCC1CCCCN1C(=O)Cn1nc(-c2ccc(C)s2)cc(N)c1=O (centres undefined),-2.23%
19,Cc1cc(C)nc(Nc2cncc(C3CCCN(S(C)(=O)=O)C3)n2)n1 (centres undefined),33.8%
20,Cc1ncsc1CNc1cc(N2CCCC2CO)ncn1 (centres undefined),26.9%
21,CCc1noc(CNc2cc3c(cc2Cl)OCCO3)n1,15.1%
22,CCN(CC)CCNC(=O)c1ccn(COc2cc(C)cc(C)c2)n1,-3.13%

row,Structure (SMILES),cytotoxicity at 70.5 h
1,Cc1ccc(CCNC(=O)N2CCC(Cc3cnn(C)c3)C2)cn1 (centres undefined),-1.42%
2,COc1ccsc1C(=O)Nc1cc(Cl)c(=O)n(C)c1,-5.8%
3,CC(C)NC(=O)C1CN(C(=O)Cc2cccc(F)c2)CC12CCOCC2 (centres undefined),10.1%
4,Cc1nn(C)c(Cl)c1C1CCCN1C(=O)c1cccc(C#N)c1 (centres undefined),0.647%
5,COC(=O)c1ccc(N(C(=O)c2ccncc2)C(C)C)c(C)c1,-17.2%
6,CCC(CC)C(=O)NCCc1ccn(-c2ccccc2)n1,-0.813%
7,COC1CCN(c2ccc(F)cc2CN(C)C(C)C(N)=O)CC1 (centres undefined),-1.51%
8,CCC(NC(=O)C1CCN(C(=O)C2CC2)CC1)c1cn2cccnc2n1 (centres undefined),-8.35%
9,CC(Cn1cccn1)NCc1csc(-c2ccc(F)cc2)n1 (centres undefined),5.69%
10,Cn1ccn2ncc(C(=O)NCc3cccnc3N3CCCC(O)C3)c12 (centres undefined),-18.3%
11,O=C(Nc1ccccn1)c1ccc(F)c(S(=O)(=O)NC2CC2)c1,-16.8%
12,CCC(NC(=O)c1ccc(COC)o1)c1nc(C(F)(F)F)cs1 (centres undefined),4.55%
13,COc1cncc(N2CCN(Cc3ccco3)CC2)n1,-12.1%
14,CN(Cc1nc2ccccc2c(=O)[nH]1)C[C@@H]1CCCN2CCCC[C@H]12,-2.89%
15,O=C(NCCc1cccs1)[C@]12COC[C@H]1CN(Cc1ccccn1)C2,39.1%
16,O=C(Nc1ccc(F)cc1)N1C[C@H]2C[C@H](C(=O)N3CCOCC3)[C@@H](C1)O2,-1.46%
17,CN(Cc1nc2ccccc2s1)C1CCCN(c2cccnn2)C1 (centres undefined),-11%
18,Cc1nn(CC(=O)N(C)Cc2nncn2C(C)C)c(=O)c2ccccc12,-9.91%
19,Cc1ccc(CN2C[C@H]3C[C@H](C(=O)NCc4cccnc4)[C@@H](C2)O3)cc1,37.6%
20,CNC(=O)[C@@H]1C[C@H](N)CN1S(=O)(=O)c1cc(C)c(Cl)cc1C,1.05%
21,CC(=O)Nc1ncc(S(=O)(=O)Nc2ccccc2F)s1,-9.78%
22,Cc1cc(-c2cnc(NC3CCCCC3)nc2-c2ccco2)on1,-9.46%
